From PMC12521615, “Accurate affinity models for SH2 domains from peptide binding assays and free‐energy regression” (Protein Science : A Publication of the Protein Society, 2025) come the findings set out here.

Each structure is given as a SMILES string. Non-standard residues stand in square brackets, D forms with d. Residues, ends and D or L forms follow the SMILES beside them. pY = N[C@@H](Cc1ccc(OP(=O)(O)O)cc1)C(=O)O

What all share (type): binding
The target of one experiment is T1, Lyn SH2 domain (Homo sapiens, UniProt P07948).
T1 construct: The human SH2 domains from Fyn (142–248), Lyn (121–228); His6-SUMO (N, cleaved yes); host or cells: Escherichia coli C43(DE3) with BirA helper plasmid
T1 sequence (P07948 121-228): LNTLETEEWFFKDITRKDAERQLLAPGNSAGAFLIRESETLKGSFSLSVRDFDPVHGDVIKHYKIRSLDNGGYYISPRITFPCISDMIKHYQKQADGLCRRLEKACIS
The experiment is described as follows: competitive fluorescence polarization, Lyn SH2 domain. Particulars: Table S3, unpaired validation; competition fluorescence polarization; probe FITC-Ahx-GDG-pY-EEISPLLL-NH2 30 nM; [SH2] 106 nM; mean. An excerpt: First, we generated bacterial display datasets and affinity models for three additional SH2 domains from Src‐family kinases Lyn, Blk, and Yes (Figure 5a). For validation of the affinity model for Lyn, we selected a subset of phosphopeptides that were likely to fall within the dynamic range of the competitive fluorescence polarization assay (see “Methods” for details). […] We measured binding affinities to the corresponding phosphopeptides by fluorescence polarization.
The human SH2 domains from Fyn (142–248), Lyn (121–228), Blk (116–222), and Yes (150–257) kinases were PCR‐amplified from plasmids encoding the full‐length proteins and cloned using the NEBuilder® HiFi DNA Assembly Master Mix (NEB) in a pET plasmid backbone that was PCR‐amplified with the primers pETXbaI_for and pETXhoI_rev (these and all other primers are defined in Table S7) from the pET‐His6‐SUMO‐Grb2(SH2), as reported before (Li et al., [2023]), thus adding an N‐terminal His6‐SUMO tag and a C‐terminal AviTag® for biotinylation. The SH2 plasmids are available via Addgene: pET28‐His6‐SUMO‐Fyn‐SH2‐AviTag (214202), pET28‐His6‐SUMO‐Blk‐SH2‐AviTag (214204), pET28‐His6‐SUMO‐Lyn‐SH2‐AviTag (214207), pET28‐His6‐SUMO‐Yes‐SH2‐AviTag (214208), and pET28‐His6‐SUMO‐cSrc‐SH2‐AviTag (214230). For expression and parallel biotinylating of the SH2 domain product, Escherichia coli C43(DE3) cells carrying a BirA encoding helper plasmid were transformed with the respective SH2 domain expression construct and plated to grow overnight at 37°C on a streptomycin and kanamycin (100 μg/mL both) LB‐agar plate. The colonies were collected in 10 mL of TB medium and used to inoculate 1 L of TB medium and grown at 37°C and 215 rpm. Upon reaching an OD600 of 0.5, the expression of the SH2 domains was induced by adding IPTG up to 0.5 mM and biotin up to 250 μM, and the expressing culture was incubated at 18°C for 16–18 h. After removing the medium through centrifugation, the cell pellets were snap‐frozen in liquid N2 and stored at −80°C until purification. To purify the biotinylated SH2 domains, the cell pellets were resuspended in lysis buffer (50 mM Tris, pH 7.5, 300 mM NaCl, 20 mM imidazole, 10% glycerol), supplementing them with 2 mM β‐mercaptoethanol and 1× protease inhibitor cocktail before lysis by sonication (Fisherbrand Sonic Dismembrator). The soluble fraction separated after centrifugation at 33,000 g was run on a HisTrap HP column (Cytiva), then washed with 10 CV of the lysis buffer followed by 10 CV of wash buffer (50 mM Tris, pH 7.5, 50 mM NaCl, 10 mM imidazole, 10% glycerol). Next, the protein was eluted with elution buffer (50 mM Tris, pH 7.5, 50 mM NaCl, 250 mM imidazole, 10% glycerol) directly onto a 5 mL HiTrap Q HP anion exchange column (Cytiva). The biotinylated SH2 domain was then eluted from the anion exchange column with an NaCl gradient (50 mM Tris, pH 7.5, 0.05–1 M NaCl, 1 mM TCEP‐HCl), and the His6‐SUMO tag was cleaved using 0.05 mg/mL Ulp1 protease. The biotinylated SH2 domain was then collected in a flowthrough after running the cleavage reaction over a HisTrap HP column. Finally, the biotinylated SH2 domain in the flowthrough was run on a HiLoad 16/600 Superdex 75 pg size exclusion column (Cytiva) in storage buffer (20 mM HEPES, pH 7.5, 150 mM NaCl, 10% glycerol).
(In general: Fluorescence polarisation rises when a labelled molecule tumbles more slowly, as on binding a larger partner.)

A further experiment deals with T2, c-Src SH2 domain (Homo sapiens, UniProt P12931).
T2 construct: the SH2 domain from c‐Src kinase; His6-SUMO (N, cleaved yes); host or cells: Escherichia coli C43(DE3) with BirA helper plasmid
T2 sequence (P12931 151-248 limits assumed): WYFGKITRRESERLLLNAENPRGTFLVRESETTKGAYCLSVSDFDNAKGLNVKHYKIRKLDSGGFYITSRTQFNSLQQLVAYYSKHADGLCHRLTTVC
Kind of experiment: competitive fluorescence polarization, c-Src SH2 domain. Particulars: Table S3, unpaired validation; competition fluorescence polarization; probe FITC-Ahx-GDG-pY-EEISPLLL-NH2 30 nM; [SH2] 123-126 nM; mean.

Another experiment concerns the target T3, Fyn SH2 domain (Homo sapiens, UniProt P06241).
T3 construct: The human SH2 domains from Fyn (142–248), Lyn (121–228); His6-SUMO (N, cleaved yes); host or cells: Escherichia coli C43(DE3) with BirA helper plasmid
The experiment is described as follows: biochemical. An excerpt:
The human SH2 domains from Fyn (142–248), Lyn (121–228), Blk (116–222), and Yes (150–257) kinases were PCR‐amplified from plasmids encoding the full‐length proteins and cloned using the NEBuilder® HiFi DNA Assembly Master Mix (NEB) in a pET plasmid backbone that was PCR‐amplified with the primers pETXbaI_for and pETXhoI_rev (these and all other primers are defined in Table S7) from the pET‐His6‐SUMO‐Grb2(SH2), as reported before (Li et al., [2023]), thus adding an N‐terminal His6‐SUMO tag and a C‐terminal AviTag® for biotinylation. The SH2 plasmids are available via Addgene: pET28‐His6‐SUMO‐Fyn‐SH2‐AviTag (214202), pET28‐His6‐SUMO‐Blk‐SH2‐AviTag (214204), pET28‐His6‐SUMO‐Lyn‐SH2‐AviTag (214207), pET28‐His6‐SUMO‐Yes‐SH2‐AviTag (214208), and pET28‐His6‐SUMO‐cSrc‐SH2‐AviTag (214230). For expression and parallel biotinylating of the SH2 domain product, Escherichia coli C43(DE3) cells carrying a BirA encoding helper plasmid were transformed with the respective SH2 domain expression construct and plated to grow overnight at 37°C on a streptomycin and kanamycin (100 μg/mL both) LB‐agar plate. The colonies were collected in 10 mL of TB medium and used to inoculate 1 L of TB medium and grown at 37°C and 215 rpm. Upon reaching an OD600 of 0.5, the expression of the SH2 domains was induced by adding IPTG up to 0.5 mM and biotin up to 250 μM, and the expressing culture was incubated at 18°C for 16–18 h. After removing the medium through centrifugation, the cell pellets were snap‐frozen in liquid N2 and stored at −80°C until purification. To purify the biotinylated SH2 domains, the cell pellets were resuspended in lysis buffer (50 mM Tris, pH 7.5, 300 mM NaCl, 20 mM imidazole, 10% glycerol), supplementing them with 2 mM β‐mercaptoethanol and 1× protease inhibitor cocktail before lysis by sonication (Fisherbrand Sonic Dismembrator). The soluble fraction separated after centrifugation at 33,000 g was run on a HisTrap HP column (Cytiva), then washed with 10 CV of the lysis buffer followed by 10 CV of wash buffer (50 mM Tris, pH 7.5, 50 mM NaCl, 10 mM imidazole, 10% glycerol). Next, the protein was eluted with elution buffer (50 mM Tris, pH 7.5, 50 mM NaCl, 250 mM imidazole, 10% glycerol) directly onto a 5 mL HiTrap Q HP anion exchange column (Cytiva). The biotinylated SH2 domain was then eluted from the anion exchange column with an NaCl gradient (50 mM Tris, pH 7.5, 0.05–1 M NaCl, 1 mM TCEP‐HCl), and the His6‐SUMO tag was cleaved using 0.05 mg/mL Ulp1 protease. The biotinylated SH2 domain was then collected in a flowthrough after running the cleavage reaction over a HisTrap HP column. Finally, the biotinylated SH2 domain in the flowthrough was run on a HiLoad 16/600 Superdex 75 pg size exclusion column (Cytiva) in storage buffer (20 mM HEPES, pH 7.5, 150 mM NaCl, 10% glycerol). The purified biotinylated SH2 domains were aliquoted, snap‐frozen in liquid N2, and stored at −80°C.
Measured binding constants (K D) from competition mode fluorescence polarization experiments were obtained using the purified SH2 domains used for the selection and chosen sets of peptides with a phosphorylated tyrosine exactly as described previously (Li et al., [2023]). […] (c‐Src SH2 consensus) was used as the probe, and for the Grb2 SH2 domain, the fluorescently labeled peptide FITC‐Ahx‐FDDPS(pY)VNVQN (Ahx = 6‐aminohexanoic acid) from the Y177 phospho‐tyrosine site of BCR. Before performing the competition mode fluorescence polarization measurement, the K D of the probes for the respective SH2 domains was first measured in a direct mode of fluorescence polarization.

T3 sequence (P06241 142-248): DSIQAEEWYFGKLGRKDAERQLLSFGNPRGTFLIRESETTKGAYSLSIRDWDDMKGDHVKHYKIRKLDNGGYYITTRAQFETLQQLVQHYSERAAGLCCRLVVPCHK
Source text for c-Src SH2 domain: Measured binding constants (K D) from competition mode fluorescence polarization experiments were obtained using the purified SH2 domains used for the selection and chosen sets of peptides with a phosphorylated tyrosine exactly as described previously (Li et al., [2023]). […] Before performing the competition mode fluorescence polarization measurement, the K D of the probes for the respective SH2 domains was first measured in a direct mode of fluorescence polarization. […] Using the validation data for the Fyn SH2 domain, the range of predicted relative binding affinities that corresponds to the range between 1 nM and 100 μM, which is the dynamic range of reliable measurement of absolute binding affinities using our competitive fluorescence polarization setup, was defined and used to further filter the set of candidate phosphopeptides. A subset that evenly covers the chosen range of predicted relative affinities was finally picked for the validation measurements of the Lyn SH2 domain.

Broadly, the Kd is the concentration at which binding is half-saturated. `CC(=O)N[C@@H](CCC(N)=O)C(=O)NCC(=O)N[C@@H](CCCNC(=N)N)C(=O)N[C@@H](CCCNC(=N)N)C(=O)N[C@@H](CCC(=O)O)C(=O)N[C@@H](CCC(=O)O)C(=O)N[C@@H](Cc1ccc(OP(=O)(O)O)cc1)C(=O)N[C@@H](CC(=O)O)C(=O)N[C@H](C(=O)N[C@@H](CC(C)C)C(=O)N[C@@H](CC(=O)O)C(=O)N[C@@H](CCCCN)C(=O)NCC(N)=O)C(C)C` [CD3Z pY83] (Ac-QGRREE[pY]DVLDKG-NH2) showed a dissociation constant (Kd) at Lyn SH2 domain of 2950 nM. Turning to `CC[C@H](C)[C@H](NC(=O)[C@H](CCC(=O)O)NC(=O)[C@H](CC(=O)O)NC(=O)[C@H](Cc1ccc(OP(=O)(O)O)cc1)NC(=O)[C@@H](NC(=O)[C@H](CCCNC(=N)N)NC(=O)[C@H](CO)NC(=O)[C@H](CCC(=O)O)NC(=O)[C@H](C)NC(=O)[C@H](CCC(N)=O)NC(C)=O)[C@@H](C)CC)C(=O)N[C@@H](CC(C)C)C(=O)N[C@@H](CCC(N)=O)C(=O)NCC(N)=O` [CD84 pY296] (Ac-QAESRI[pY]DEILQG-NH2), the results for the Kd at c-Src SH2 domain and on Lyn SH2 domain were 28.1 nM and 91 nM, respectively.

Consider `CC[C@H](C)[C@H](NC(=O)[C@H](CC(N)=O)NC(=O)[C@H](CCCCN)NC(=O)[C@H](Cc1ccc(OP(=O)(O)O)cc1)NC(=O)[C@H](CC(=O)O)NC(=O)[C@@H](NC(=O)CNC(=O)CNC(=O)[C@H](CCC(=O)O)NC(=O)[C@H](CCC(N)=O)NC(C)=O)C(C)C)C(=O)N[C@@H](Cc1c[nH]cn1)C(=O)N[C@@H](CC(C)C)C(=O)NCC(N)=O` [CSF1R pY699] (Ac-QEGGVD[pY]KNIHLG-NH2), for which, on Lyn SH2 domain, binding was put at a Kd of 22800 nM. With `CC[C@H](C)[C@H](NC(=O)[C@H](CC(=O)O)NC(=O)[C@H](CCC(N)=O)NC(C)=O)C(=O)N[C@@H](CC(N)=O)C(=O)N[C@@H](CO)C(=O)N[C@@H](CC(C)C)C(=O)N[C@@H](Cc1ccc(OP(=O)(O)O)cc1)C(=O)N[C@@H](CC(=O)O)C(=O)N[C@H](C(=O)N[C@@H](CO)C(=O)N[C@@H](CCCNC(=N)N)C(=O)N[C@@H](CCSC)C(=O)NCC(N)=O)C(C)C` [PLCG2 pY 753] (Ac-QDINSL[pY]DVSRMG-NH2), the values for the dissociation constant (Kd) at c-Src SH2 domain and at Lyn SH2 domain were 12300 nM and 11700 nM, respectively. For `CC(=O)N[C@@H](CCC(N)=O)C(=O)N[C@@H](Cc1c[nH]cn1)C(=O)N[C@@H](CCCCN)C(=O)N[C@@H](CCC(=O)O)C(=O)N[C@@H](CC(=O)O)C(=O)N[C@H](C(=O)N[C@@H](Cc1ccc(OP(=O)(O)O)cc1)C(=O)N[C@@H](CCC(=O)O)C(=O)N[C@@H](CC(N)=O)C(=O)N[C@@H](CC(C)C)C(=O)N[C@@H](Cc1c[nH]cn1)C(=O)N[C@H](C(=O)NCC(N)=O)[C@@H](C)O)C(C)C` [PTPN6 pY564] (Ac-QHKEDV[pY]ENLHTG-NH2) the same measures were 909 nM and 943 nM.

In the case of `CC[C@H](C)[C@H](NC(=O)[C@H](CCC(=O)O)NC(=O)[C@H](CO)NC(=O)[C@H](Cc1ccc(OP(=O)(O)O)cc1)NC(=O)[C@H](CCC(=O)O)NC(=O)[C@@H](NC(=O)[C@@H](NC(=O)[C@H](CO)NC(=O)[C@@H]1CCCN1C(=O)[C@H](CCC(N)=O)NC(C)=O)[C@@H](C)O)[C@@H](C)O)C(=O)N[C@@H](CCCCN)C(=O)N[C@H](C(=O)NCC(N)=O)[C@@H](C)O` [SIGLEC5 pY544] (Ac-QPSTTE[pY]SEIKTG-NH2), the Kd on c-Src SH2 domain came to 282 nM; at Lyn SH2 domain it was 362 nM. As to `CC(=O)N[C@@H](CCC(N)=O)C(=O)N[C@@H](CC(=O)O)C(=O)N[C@@H](CC(=O)O)C(=O)N[C@@H](CCC(N)=O)C(=O)N[C@@H](CCC(=O)O)C(=O)N[C@H](C(=O)N[C@@H](Cc1ccc(OP(=O)(O)O)cc1)C(=O)N[C@@H](CC(=O)O)C(=O)N[C@@H](CC(=O)O)C(=O)N[C@H](C(=O)N[C@@H](C)C(=O)N[C@@H](CCC(=O)O)C(=O)NCC(N)=O)C(C)C)C(C)C` [SLAP-130 pY595] (Ac-QDDQEV[pY]DDVAEG-NH2), the values for the Kd at c-Src SH2 domain and at Lyn SH2 domain were 191 nM and 240 nM, respectively.

As for `CSCC[C@H](NC(=O)[C@H](CCC(N)=O)NC(C)=O)C(=O)N[C@@H](CCC(=O)O)C(=O)N[C@@H](CCCCN)C(=O)N[C@@H](Cc1c[nH]cn1)C(=O)N[C@H](C(=O)N[C@@H](Cc1ccc(OP(=O)(O)O)cc1)C(=O)N[C@@H](CCC(=O)O)C(=O)N[C@@H](CO)C(=O)N[C@H](C(=O)N[C@H](C(=O)N[C@@H](CCC(N)=O)C(=O)NCC(N)=O)[C@@H](C)O)C(C)C)C(C)C` [Syn-F-2] (Ac-QMEKHV[pY]ESVTQG-NH2), at Fyn SH2 domain, the Kd is 18.3 nM.
